Measured values taken from patent publication US7189745B1, “Compounds” (SmithKline Beecham Corporation, priority 1999, dated 2007).

What was measured:
activated tie 2 kinase = target: T1, activated tie 2 kinase (Homo sapiens, UniProt Q02763); test: Fluorescence polarization for Tie 2 kinase; format: biochemical; conditions: fluorescence polarization assay, 250 uM ATP, 10 uM peptide substrate
T1 construct: a baculovirus expressed GST fusion for Tie2 kinase domain was constructed and expressed using the commercial vector pAcG I (Pharmingen); GST; made in house
Protocol: 2. Fluorescence Polarization for Tie 2 Kinase
2% DMSO (when screening compounds)
activated tie 2 kinase * see activation protocol below
For a 50 ul reaction add the following to each well of a 96-well black half-area plate (Costar, cat# 3694) • 1.5 ul of compound in 20% DMSO • 5 ul 9× kinase buffer. • 5 ul 2.5 mM ATP. • 5 ul 100 uM peptide substrate. • 25 ul PTK detection mix (Panvera, P-2652, 50 ml—UK distributor is Cambridge Bioscience) • 5 ul activated tie 2 kinase (protocol below) diluted in 1× buffer to initiate the reaction. • 7. Read polarization on an FP instrument cycling for 30–50 minutes in accordance with enzyme activity.
Activation of Tie 2 Kinase Protocol:
• 1. Incubate 5 uM tie 2 kinase in the 300 uM ATP and the buffering conditions described above. • 2. Allow to incubate at 27° C. for 2 hours. • 3. Add 2.5 ml reaction to a NAP-25 desalting column (Pharmacia Biotech cat. no. 17-0852-02) pre-equilibrated in 20 mM Tris-HCl pH 7.5, 100 mM NaCl2 to separate the ATP from the enzyme. • 4. Elute the enzyme with 5.0 ml 20 mM Tris-HCl pH 7.5, 100 mM NaCl2; the protein concentration should be 2.5 uM at this point. • 5. Aliquot out the enzyme and store at −80° C. as soon as possible. B. Measurement of Tie2 Receptor Signal Transduction—a Cellular Assay

Tie2 kinase = target: T2, Tie2 kinase (Homo sapiens, UniProt Q02763); test: Tie2 kinase autophosphorylation flashplate assay; format: biochemical; conditions: ATP final 30 uM
T2 construct: a baculovirus expressed GST fusion for Tie2 kinase domain was constructed and expressed using the commercial vector pAcG I (Pharmingen); GST; made in house
Description: A partial cDNA clone for the Tie2 receptor was used to make protein for Tie kinase studies. In order to generate the primary screening assay, a baculovirus expressed GST fusion for Tie2 kinase domain was constructed and expressed using the commercial vector pAcG I (Pharmingen).
This final construct was transfected into Baculovirus and soluble GST fusion products used in the screening assay.
Tie2 kinase activity assay: The Tie2 kinase activity assay was typically run in one of 2 ways described as follows. Minor variations in the assay give similar results.
1. Autophosphorylation flashplate assay
Kinase buffer (final 20 mM Tris-HCl, pH7.0, 100 mM NaCl, 12 mM MgCl2, 1 mM DTT).
Gamma ^33p-ATP (usually final amount of 0.5–1 uCi/well)
ATP (final 30 uM, or other desired concentration)
Flashplate (96-well, polystyrene microplate with plastic scintillator coated wells)
TopCount (microplate scintillation counter)
Turn on incubator shaker and adjust temperature to 30° C.
Add 20 ul of 3× kinase buffer per well to the Flashplate
Add 20 ul of protein per well except for background. Compounds added, typically in DMSO stocks, at 1–2 ul.
Add 20 ul mixture of gamma ^33p-ATP and cold ATP per well.
Cover with transparent polyester film.
Incubate at 30° C. for two hours in shaker, or desired time. […]
Read plate on TopCount or other counting instrument. Results are calculated as % inhibition […]

[1] = system: angiogenesis (vascular density) in air pouch granuloma; test: Murine air pouch granuloma model of inflammatory angiogenesis; format: in vivo, mice; conditions: positive control
Description: Measurement of Angiogenesis In Vivo—Murine Air Pouch Granuloma Model:
The murine airpouch granuloma model of chronic inflammation (Kimura et al., 1985, J. Pharmacobio-Dyn., 8:393–400; Colville-Nash et al., 1995, J. Pharm. and Exp. Ther., 274:1463–1472) whose disclosure is incorporated herein by reference in its entirety, is characterized by inflammatory cell influx, fibrous tissue proliferation and intense angiogenesis. […] In addition, angiogenesis can be accurately quantitated by a vascular casting method.
Day 1, mice are anesthetized using Aerrane (isoflurane) gas (5%) or other approved methods, after which 3 mls of air is injected into the dorsal subcutaneous tissue using a 27 g needle. Mice are allowed to recover. […]
When the granuloma is removed it is weighed and then dried for 3 days at 45° C. and reweighed. […] The carmine content is then determined against a carmine red standard curve (0.5 to 2 mg/ml) generated in extracted tissue from non carmine treated animals and read at 490 nm. Sample and standard values are determined typically using DeltaSoft Elisa analysis software (Biometallics Inc., Princeton, N.J.). […]
The effect of compounds on vascular density was typically measured for 6 days after induction of the granuloma. This time point has been determined to be at or near the peak of angiogenesis. […] Medroxyprogesterone had no effect on granuloma size as measured by dry weight.

T2 sequence (Q02763 824-1096 limits assumed): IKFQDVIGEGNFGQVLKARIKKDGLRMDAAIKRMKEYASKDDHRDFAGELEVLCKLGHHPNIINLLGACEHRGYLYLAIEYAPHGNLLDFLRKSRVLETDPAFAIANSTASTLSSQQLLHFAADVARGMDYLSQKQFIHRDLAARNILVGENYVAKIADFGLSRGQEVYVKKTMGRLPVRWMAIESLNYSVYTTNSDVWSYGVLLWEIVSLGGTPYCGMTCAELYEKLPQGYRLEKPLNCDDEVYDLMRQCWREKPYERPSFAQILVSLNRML
T1 sequence (Q02763 824-1096 limits assumed): as above

Row | IC50 (activated tie 2 kinase) [nM] | IC50 (Tie2 kinase) [nM] | Molecule | maximum reduction (vascular density) ([1]; measured 6 days after induction of the granuloma) [%] | effect on granuloma size as measured by dry weight ([1]; murine air pouch granuloma)
1 | < 1000 | < 1000 | COc1ccc2cc(-c3nc(C(C)(C)CNC(=O)OC(C)(C)C)[nH]c3-c3ccncc3)ccc2c1 [Example 1, (2-(4-(6-methoxynapthalen-2-yl)-5-pyridin-4-yl-1H-imidazol-2-yl)-2-methyl-propyl)-carbamic acid tert-butyl ester] |  | 
2 |  |  | medroxyprogesterone | 50 | no effect
